{"source": "patent US4476328A", "about": "“Process for producing 3,3,3-trifluoropropyl substituted phenol” (Kureha Kagaku Kogyo Kabushiki Kaisha, priority 1980, dated 1984)", "assay": "electrical properties (dielectric constant, dielectric loss, volume resistivity)", "type": "physicochemical", "key": {"[1]": {"settings": "Table 5, Example 6, temperature not given"}}, "data": [{"substance": "n-octyl-( 3,3,3-trifluoropropyl)benzene [n-octyl(3,3,3-trifluoropropyl)benzene]", "values": [{"measurement": "Dielectric constant", "setting": "[1]", "result": 4.18}, {"measurement": "Dielectric loss (tanδ)", "setting": "[1]", "result": 0.095, "unit": "%"}, {"measurement": "Volume resistivity", "setting": "[1]", "result": "1.08 × 10^14 Ω·cm"}, {"measurement": "Dielectric constant", "setting": "Table 6, Example 7, at 20° C.", "result": 3.89}, {"measurement": "Dielectric loss (tanδ)", "setting": "Table 6, Example 7, at 20° C.", "result": 0.015, "unit": "%"}, {"measurement": "Volume resistivity", "setting": "Table 6, Example 7, at 20° C.", "result": "8.79 × 10^14 Ω·cm"}]}]}
